Where two headings read alike, the source gives them in different places.
Assays:
Format in all cases: cell-based
[1] = Hoechst 33342 nuclear staining (48 h read-out)
Procedure: (§1) A) Hoechst 33342 Nuclear Staining
(§2) This assay is performed in 96 well tissue culture plates. Appropriate number of cells (adherent cells: 3-5*10^3, suspension cells: 8-10*10^3) are being seeded out in 80 μl complete medium. Adherent cells are incubated for 24 h for proper spreading out before addition of test compounds while suspension cells are immediately treated with test compounds after seeding out. The test compounds are added in 20 μl complete medium containing max 5% DMSO. The final compound concentrations in the assays are in the range of 0.001 μM-10 μM. After 24 h or 48 h incubation at culture conditions, 10 μl medium containing Hoechst 33342 dye (Sigma B-2261) at 2-5 μg/ml are added to each well. The assay plates are then further incubated for 30 minutes and subsequently analyzed with a standard inverted fluorescence microscope.
(§3) The readout allows the determination of the fraction of apoptotic nuclei as well as other morphological criteria specific for apoptosis as a function of the treatment. The scores A, B, C and D are explained at the end of the Table.

tumor cells [2] = experiment: Hoechst 33342 nuclear staining (48 h read-out)
Procedure: as §1, §2, §3

[3] = MTS proliferation assay (72 h read-out); conditions: MRC5 cells
Procedure: (§4) B) MTS Proliferation Assay
(§5) The assay is performed in 96 well tissue culture plates. The cells (range: 1.5*10^3-10^4) are seeded out in 80 μl complete medium 24 h prior to compound treatment. The test compounds are added in 20 μl complete medium containing max 5% DMSO. The final compound concentrations in the assays are in the range of 0.001 μM-10 μM. The assay plates are incubated for 72 h at culture conditions. The MTS reagent is prepared according to the manufacturer's protocol (Promega G1111). 20 μl MTS reagent are added to each well; the assay plates are quickly spun and incubated for another 3 h at culture conditions. Subsequently, the plates are shortly shaked and absorption measured with a microplate-reader at 492 nm. The scores A, B, C and D are explained at the end of the Table.

tumor cells [4] = experiment: MTS proliferation assay (72 h read-out)
Procedure: as §4, §5

[5] = Mitochondrial membrane potential, JC-1 (read-out 48 h); conditions: PBL, JC-1, 48 h
Procedure: (§6) D) Mitochondrial Membrane Potential
as §2, with “The final compound concentrations in the assays are in the range of 0.001 μM-10 μM.” left out, “JC-1 (Molecular Probes, T-3168)” for “Hoechst 33342 dye (Sigma B-2261)”, “microscope by using the FITC and TRITC filters.” for “microscope.”
(§7) The readout allows the determination of the fraction of cells which show a dissipation of the mitochondrial membrane potential strongly indicating an apoptotic cell death as a function of the treatment. The scores A, B, C and D are explained at the end of the Table.

tumor cells [6] = experiment: as above; conditions: JC-1, 48 h
Procedure: as §6
as §2, with “The final compound concentrations in the assays are in the range of 0.001 μM-10 μM.” left out, “JC-1 (Molecular Probes, T-3168)” for “Hoechst 33342 dye (Sigma B-2261)”, “microscope by using the FITC and TRITC filters.” for “microscope.”
as §7

[7] = Homo sapiens, MRC5 cells, read-out: Hoechst 33342 nuclear staining EC50, MRC5
[8] = PBL, read-out: Hoechst 33342 nuclear staining EC50, PBL
[9] = Homo sapiens, HeLa cells, read-out: Hoechst 33342 nuclear staining EC50, HeLa
[10] = Homo sapiens, Jurkat cells, read-out: Hoechst 33342 nuclear staining EC50, Jurkat
[11] = Jily cells, read-out: Hoechst 33342 nuclear staining EC50, Jily
[12] = Homo sapiens, HT-1080, HT1080 cells, read-out: MTS proliferation assay IC50, HT1080
[13] = Homo sapiens, HeLa cells, read-out: MTS proliferation assay IC50, HeLa
[14] = Jily cells, read-out: MTS proliferation assay IC50, Jily
[15] = Homo sapiens, HeLa cells, read-out: Mitochondrial membrane potential (read-out 48 h) HeLa
[16] = Homo sapiens, Jurkat cells, read-out: Mitochondrial membrane potential (read-out 48 h) Jurkat
[17] = Homo sapiens, MCF7 cells, read-out: Mitochondrial membrane potential (read-out 48 h) MCF7
[18] = Jily cells, read-out: Mitochondrial membrane potential (read-out 48 h) Jily
[19] = Homo sapiens, Jurkat cells, read-out: MTS proliferation assay IC50, Jurkat
[20] = MRC5 cells, read-out: Hoechst 33342 nuclear staining EC50, MRC5
[21] = HeLa cells, read-out: Hoechst 33342 nuclear staining EC50, HeLa
[22] = Jurkat cells, read-out: Hoechst 33342 nuclear staining EC50, Jurkat
[23] = HT1080 cells, read-out: MTS proliferation assay IC50, HT1080
[24] = HeLa cells, read-out: MTS proliferation assay IC50, HeLa
[25] = Jurkat cells, read-out: MTS proliferation assay IC50, Jurkat
[26] = HeLa cells, read-out: Mitochondrial membrane potential (read-out 48 h) HeLa
[27] = Jurkat cells, read-out: Mitochondrial membrane potential (read-out 48 h) Jurkat
[28] = MCF7 cells, read-out: Mitochondrial membrane potential (read-out 48 h) MCF7

Row | EC50 [1, 8] [µM] | EC50 (tumor cells [2]; [9]) [µM] | EC50 (tumor cells [2]; [10]) [µM] | EC50 (tumor cells [2]; [11]) [µM] | IC50 (tumor cells [4]; [12]) [µM] | IC50 (tumor cells [4]; [13]) [µM] | IC50 (tumor cells [4]; [14]) [µM] | EC50 [5] [µM] | EC50 (tumor cells [6]; [15]) [µM] | EC50 (tumor cells [6]; [16]) [µM] | EC50 (tumor cells [6]; [17]) [µM] | EC50 (tumor cells [6]; [18]) [µM] | EC50 (tumor cells [2]; [21]) [µM] | EC50 (tumor cells [2]; [22]) [µM] | IC50 (tumor cells [4]; [23]) [µM] | SMILES | EC50 [1, 7] [µM] | IC50 ([3]; Homo sapiens) [µM] | IC50 (tumor cells [4]; [19]) [µM] | EC50 [1, 20] [µM] | IC50 [3] [µM] | further results
1 | > 1 | > 1 | > 1 | > 1 | > 1 | > 1 | 0.1 to 1 | > 1 | > 1 | 0.1 to 1 | > 1 | > 1 | – | – | – | Nc1c(C(=O)c2ccccc2OCc2ccccc2)oc2ccc(Cl)cc12 [Example 1, 3-Amino-5-chloro-2-(2-benzyloxybenzoyl)-benzofuran] | > 1 | > 1 | – | – | – | –
2 | > 1 | – | – | > 1 | – | – | > 1 | > 1 | – | – | – | > 1 | > 1 | > 1 | > 1 | Nc1c(C(=O)c2ccccc2OCCN2CCOCC2)oc2ccc(Cl)cc12 [Example 10] | – | – | – | > 1 | > 1 | IC50 (tumor cells [4]; [24]): > 1 µM; IC50 (tumor cells [4]; [25]): > 1 µM; EC50 (tumor cells [6]; [26]): > 1 µM; EC50 (tumor cells [6]; [27]): > 1 µM; EC50 (tumor cells [6]; [28]): > 1 µM
3 | > 1 | 0.1 to 1 | 0.1 to 1 | 0.1 to 1 | 0.1 to 1 | 0.1 to 1 | 0.1 to 1 | > 1 | 0.1 to 1 | 0.1 to 1 | 0.1 to 1 | 0.1 to 1 | – | – | – | CCOc1ccc(OCC)c(C(=O)c2oc3ccc(Cl)cc3c2N)c1 [Example 19] | 0.1 to 1 | 0.1 to 1 | – | – | – | –
4 | > 1 | – | – | 0.1 to 1 | – | – | 0.1 to 1 | > 1 | – | – | – | 0.1 to 1 | 0.1 to 1 | 0.1 to 1 | 0.1 to 1 | CCOc1ccc(-n2cccc2)cc1C(=O)c1oc2ccc(Cl)cc2c1N [Example 22] | – | – | – | 0.1 to 1 | 0.1 to 1 | IC50 (tumor cells [4]; [24]): 0.1 to 1 µM; IC50 (tumor cells [4]; [25]): 0.1 to 1 µM; EC50 (tumor cells [6]; [26]): 0.1 to 1 µM; EC50 (tumor cells [6]; [27]): 0.1 to 1 µM; EC50 (tumor cells [6]; [28]): > 1 µM
5 | > 1 | > 1 | > 1 | > 1 | > 1 | > 1 | > 1 | > 1 | > 1 | > 1 | > 1 | > 1 | – | – | – | CCOc1ccccc1C(=O)c1oc2ccc(Cl)cc2c1O [Example 32, 5-Chloro-2-(2-ethoxybenzoyl)-3-hydroxybenzofuran] | > 1 | > 1 | > 1 | – | – | –

Row | SMILES | EC50 [1, 8] [µM] | EC50 (tumor cells [2]; [9]) [µM] | EC50 (tumor cells [2]; [10]) [µM] | EC50 (tumor cells [2]; [11]) [µM] | IC50 (tumor cells [4]; [12]) [µM] | IC50 (tumor cells [4]; [13]) [µM] | IC50 (tumor cells [4]; [14]) [µM] | EC50 [5] [µM] | EC50 (tumor cells [6]; [15]) [µM] | EC50 (tumor cells [6]; [16]) [µM] | EC50 (tumor cells [6]; [17]) [µM] | EC50 (tumor cells [6]; [18]) [µM] | EC50 (tumor cells [2]; [21]) [µM] | EC50 (tumor cells [2]; [22]) [µM] | IC50 (tumor cells [4]; [23]) [µM] | EC50 [1, 7] [µM] | IC50 ([3]; Homo sapiens) [µM] | IC50 (tumor cells [4]; [19]) [µM] | EC50 [1, 20] [µM] | IC50 [3] [µM] | further results
6 | CCOc1ccccc1C(=O)c1oc2c(C)cccc2c1N [Example 5, 3-Amino-7-methyl-2-(2-ethoxybenzoyl)-benzofuran] | > 1 | > 1 | 0.1 to 1 | > 1 | > 1 | > 1 | 0.1 to 1 | > 1 | > 1 | 0.1 to 1 | > 1 | > 1 | – | – | – | > 1 | > 1 | 0.1 to 1 | – | – | –
7 | CN(C)CCOc1ccccc1C(=O)c1oc2ccc(Cl)cc2c1N [Example 11] | > 1 | – | – | > 1 | – | – | > 1 | > 1 | – | – | – | > 1 | > 1 | > 1 | > 1 | – | – | – | > 1 | > 1 | IC50 (tumor cells [4]; [24]): > 1 µM; IC50 (tumor cells [4]; [25]): > 1 µM; EC50 (tumor cells [6]; [26]): > 1 µM; EC50 (tumor cells [6]; [27]): > 1 µM; EC50 (tumor cells [6]; [28]): > 1 µM
8 | COc1ccc2oc(C(=O)c3cccnc3N3CCOCC3)cc2c1 [Example 39, 5-Methoxy-2-(2-morpholino-3-pyridylcarbonyl)-benzofuran] | > 1 | 0.01 to 0.1 | 0.01 to 0.1 | 0.01 to 0.1 | 0.01 to 0.1 | 0.01 to 0.1 | 0.01 to 0.1 | > 1 | 0.01 to 0.1 | 0.01 to 0.1 | 0.1 to 1 | 0.01 to 0.1 | – | – | – | 0.01 to 0.1 | 0.01 to 0.1 | 0.01 to 0.1 | – | – | –
